This note sets out measurements from patent US20240262806A1, “INHIBITORS OF NLRP3” (PTC THERAPEUTICS, INC., priority 2021, published 2024).

Structures can show the parent of a compound that is named as a salt.

The assay concerns NLRP3 inflammasome. The assay is described as follows: IL-1β Secretion Assay (NLRP3-dependent IL-1β secretion in PMA-differentiated THP-1 cells, nigericin activation, HTRF). The conditions noted are these: Homo sapiens, THP-1, THP-1 cells, 100 ng/mL PMA 24 h, compound 20 h, 2.5 μM Nigericin 3 h; read-out: IC50 IL-1β Inhibition. It counts as cell-based. The method, boiled down: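 PMA-differentiated THP-1 cells in RPMI with 5% FBS were treated with compounds at 7 concentrations in threefold DMSO dilutions. NLRP3 was activated with nigericin and secreted IL-1β measured by HTRF. IC50 from a logistic fit of percent inhibition versus concentration.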
The IC50 is the point on the concentration scale where inhibition reaches its midpoint. As for `CCN1CCC[C@@H](Nc2nnc(-c3ccc(C(F)(F)F)cc3OC(F)F)c3cccn23)C1` [Compound I-335], the concentration for half-maximal inhibition (IC50) was under 1 nM.

Consider `Cc1cc2c(N[C@@H]3CCCN(C)C3)nnc(-c3ccc(C(F)(F)F)cc3O)n2n1` [Compound I-336], for which the IC50 fell in the range of 10 to 100 nM.

Turning to `Cc1ccc(-c2nnc(N[C@@H]3CCCN(C)C3)n3cccc23)c(O)c1` [Compound I-337], the IC50 fell in the range of 1 to 10 nM.

In the case of `Cc1cc2c(N[C@@H]3CCCN(CCO)C3)nnc(-c3ccc(C(F)(F)F)cc3O)n2n1` [Compound I-338], the IC50 is 10 to 100 nM.

Take `COc1ccc(-c2nnc(N[C@@H]3CCCNC3)c3cc(C)nn23)c(O)c1` [Compound I-339]: the IC50 is 100 to 300 nM.

Consider `Oc1cc(C2CC2)ccc1-c1nnc(N[C@@H]2CCCN(C3CCOCC3)C2)n2cccc12` [Compound I-340], for which the IC50 lay in the range of 1 to 10 nM.

As to `Cc1cc(O)c(-c2nnc(N[C@@H]3CCCN(CCO)C3)n3cccc23)c(F)c1` [Compound I-341], the IC50 is 1 to 10 nM.

Regarding `Cc1cc(O)c(-c2nnc(N[C@@H]3CCCN(C)C3)n3cccc23)c(F)c1` [Compound I-342, 3-Fluoro-5-methyl-2-[4-[[(3R)-1-methyl-3-piperidyl]amino]pyrrolo[1,2-d][1,2,4]triazin-1-yl]phenol], the IC50 was in the range of 1 to 10 nM.

For `Oc1cc(C(F)(F)F)ccc1-c1nnc(N[C@@H]2CCCN(C3CCOCC3)C2)n2cccc12` [Compound I-343], the IC50 was 1 to 10 nM.

In the case of `Cc1cc(O)c(-c2nnc(N[C@@H]3CCCN(CCOC(F)F)C3)n3cccc23)c(F)c1` [Compound I-344], the IC50 was under 1 nM.

For `CN1CCC[C@@H](Nc2nnc(-c3ccc(C(F)(F)F)cc3O)c3cc(C4CC4)nn23)C1` [Compound I-345], the IC50 fell in the range of 1 to 10 nM.

Regarding `CN1CCC[C@@H](Nc2nnc(-c3ccc(C(F)(F)F)cc3OC(F)F)c3cc(C4CC4)nn23)C1` [Compound I-346], the IC50 was in the range of 1 to 10 nM.

Consider `COc1ccc(-c2nnc(N[C@@H]3CCCN(C)C3)n3nc(C4CC4)cc23)c(O)c1` [Compound I-347], for which the IC50 fell in the range of 10 to 100 nM.

Consider `CN1CCC[C@@H](Nc2nnc(-c3ccc(C(F)(F)F)cc3C(F)(F)F)c3cccn23)C1` [Compound I-348], for which the IC50 was 1 to 10 nM.

`COc1cc(C(F)(F)F)ccc1-c1nnc(N[C@@H]2CCCN(C)C2)n2cncc12` [Compound I-349, 1-[2-Methoxy-4-(trifluoromethyl)phenyl]-N-[(3R)-1-methyl-3-piperidyl]imidazo[1,5-d][1,2,4]triazin-4-amine]: the IC50 was 1 to 10 nM.

In the case of `OCCN1CCC[C@@H](Nc2nnc(-c3ccc(C(F)(F)F)cc3O)c3cncn23)C1` [Compound I-350], the IC50 was 1 to 10 nM.

Consider `COc1ccc(-c2nnc(N[C@@H]3CCCN(C)C3)c3cc(C)nn23)c(O)c1` [Compound I-351], for which the IC50 lay within 10 to 100 nM.

Consider `Oc1cc(C(F)(F)F)ccc1-c1nnc(N[C@@H]2CCCNC2)n2cccc12` [Compound I-352], for which the IC50 is 1 to 10 nM.

As for `OCCN1CCC[C@@H](Nc2nnc(-c3ccc(C(F)(F)F)cc3O)c3cccn23)C1` [Compound I-353], the IC50 was 1 to 10 nM.

As to `Cc1ccc(-c2nnc(N[C@@H]3CCCN(CCO)C3)n3cccc23)c(O)c1` [Compound I-354], the IC50 was under 1 nM.

`CN1CCC[C@@H](Nc2nnc(-c3ccc(Cl)cc3O)c3cccn23)C1` [Compound I-355]: the IC50 is under 1 nM.

As for `CN1CCC[C@@H](Nc2nnc(-c3ccc(Cl)cc3OC(F)F)c3cccn23)C1` [Compound I-356, 1-[4-Chloro-2-(difluoromethoxy)phenyl]-N-[(3R)-1-methyl-3-piperidyl]pyrrolo[1,2-d][1,2,4]triazin-4-amine], the IC50 was in the range of 1 to 10 nM.

Regarding `COc1ccc(-c2nnc(N[C@@H]3CCCN(C)C3)n3cccc23)c(O)c1` [Compound I-357], the IC50 was in the range of 1 to 10 nM.

As to `COc1ccc(-c2nnc(N[C@@H]3CCCN(CCO)C3)n3cccc23)c(O)c1` [Compound I-358], the IC50 lay within 1 to 10 nM.

Consider `Cc1cc(O)c(-c2nnc(N[C@@H]3CCCN(C)C3)n3nc(C)cc23)c(F)c1` [Compound I-359], for which the IC50 was under 1 nM.

In the case of `CCN1CCC[C@@H](Nc2nnc(-c3ccc(C(F)(F)F)cc3O)c3cncn23)C1` [Compound I-360], the IC50 was under 1 nM.

For `O[C@H]1CCC[C@@H](Nc2nnc(-c3ccc(C(F)(F)F)cc3OC(F)F)c3cccn23)C1` [Compound I-361, (1S,3R)-3-[[1-[2-(Difluoromethoxy)-4-(trifluoromethyl)phenyl]pyrrolo[1,2-d][1,2,4]triazin-4-yl]amino]cyclohexanol], the IC50 lay within 1 to 10 nM.

Turning to `CO[C@H]1CCC[C@@H](Nc2nnc(-c3ccc(C(F)(F)F)cc3OC(F)F)c3cccn23)C1` [Compound I-362], the IC50 was 10 to 100 nM.

With `Cc1cc2c(-c3c(O)cc(C(F)(F)F)cc3F)nnc(N[C@@H]3CCCN(C)C3)n2n1` [Compound I-363], the IC50 was under 1 nM.

As to `CC(C)(O)CN1CCC[C@@H](Nc2nnc(-c3ccc(C(F)(F)F)cc3O)c3cccn23)C1` [Compound I-364], the IC50 lay within 1 to 10 nM.

With `Oc1cc(OC(F)(F)F)ccc1-c1nnc(N[C@@H]2CCCNC2)n2cccc12` [Compound I-365], the IC50 lay in the range of 10 to 100 nM.

As to `CN1CCC[C@@H](Nc2nnc(-c3ccc(OC(F)(F)F)cc3O)c3cccn23)C1` [Compound I-366], the IC50 lay within 1 to 10 nM.

On to `Cc1ccc(-c2nnc(N[C@@H]3CCCN(CC(C)(C)O)C3)n3cccc23)c(O)c1` [Compound I-367], for which the IC50 lay within 10 to 100 nM.

In the case of `Oc1cc(Cl)ccc1-c1nnc(N[C@@H]2CCCN(CC(F)F)C2)n2cccc12` [Compound I-368], the IC50 was 10 to 100 nM.

For the compound `OCCN1CCC[C@@H](Nc2nnc(-c3ccc(Cl)cc3O)c3cccn23)C1` [Compound I-369], the IC50 fell in the range of 1 to 10 nM.

For the compound `COc1ccc(-c2nnc(N[C@@H]3CCCN(C)C3)n3cccc23)c(C(F)(F)F)c1` [Compound I-370], the IC50 lay within 1 to 10 nM.

For `CCN1CCC[C@@H](Nc2nnc(-c3ccc(C(F)(F)F)cc3C(F)(F)F)c3cccn23)C1` [Compound I-371], the IC50 was under 1 nM.

Regarding `CN1CCC[C@@H](Nc2nnc(-c3c(O)cc(C(F)(F)F)cc3F)c3cccn23)C1` [Compound I-372], the IC50 is under 1 nM.

In the case of `OCCN1CCC[C@@H](Nc2nnc(-c3ccc(OC(F)(F)F)cc3O)c3cccn23)C1` [Compound I-373], the IC50 is 1 to 10 nM.

As for `Cc1cc2c(-c3ccc(Br)cc3OC(F)(F)F)nnc(N[C@@H]3CCCN(C)C3)n2n1` [Compound I-374, (R)-4-(4-Bromo-2-(trifluoromethoxy)phenyl)-2-methyl-N-(1-methylpiperidin-3-yl)pyrazolo[1,5-d][1,2,4]triazin-7-amine], the IC50 is 1 to 10 nM.

`Cc1cc2c(-c3ccc(C(F)(F)F)cc3OC(F)F)nnc(N[C@@H]3CCCN(CCO)C3)n2n1` [Compound I-375, (R)-2-(3-((4-(2-(Difluoromethoxy)-4-(trifluoromethyl)phenyl)-2-methylpyrazolo[1,5-d][1,2,4]triazin-7-yl)amino)piperidin-1-yl)ethan-1-ol]: the half-inhibitory concentration (IC50) is 1 to 10 nM.

`FC(F)Oc1cc(C(F)(F)F)ccc1-c1nnc(N[C@@H]2CCCOC2)n2cccc12` [Compound I-376]: the IC50 fell in the range of 1 to 10 nM.

For the compound `CCN1CCC[C@@H](Nc2nnc(-c3ccc(OC)cc3O)c3cccn23)C1` [Compound I-377], the IC50 lay within 1 to 10 nM.

For `N[C@H]1CCC[C@@H](Nc2nnc(-c3ccc(C(F)(F)F)cc3OC(F)F)c3cccn23)C1` [Compound I-378], the IC50 lay within 10 to 100 nM.

As for `OCCN1CCC[C@@H](Nc2nnc(-c3c(O)cc(C4CC4)cc3F)c3cccn23)C1` [Compound I-379], the IC50 was in the range of 1 to 10 nM.

Regarding `CN1CCC[C@@H](Nc2nnc(-c3c(O)cc(C4CC4)cc3F)c3cccn23)C1` [Compound I-380], the IC50 was under 1 nM.

Regarding `COc1ccc(-c2nnc(N[C@@H]3CCCN(C)C3)n3nc(C)cc23)c(C(F)(F)F)c1` [Compound I-381], the IC50 was in the range of 1 to 10 nM.

On to `Cc1cc2c(-c3ccc(C(F)(F)F)cc3C(F)(F)F)nnc(N[C@@H]3CCCN(C)C3)n2n1` [Compound I-382], for which the IC50 lay in the range of 1 to 10 nM.

`COc1cc(Cl)ccc1-c1nnc(N[C@@H]2CCCN(C)C2)n2cncc12` [Compound I-383]: the IC50 lay within 1 to 10 nM.

With `CN1CCC[C@@H](Nc2nnc(-c3ccc(Cl)cc3O)c3cncn23)C1` [Compound I-384], the IC50 was under 1 nM.

Turning to `CN1C[C@H](O)C[C@@H](Nc2nnc(-c3ccc(C(F)(F)F)cc3OC(F)F)c3cccn23)C1` [Compound I-385, (3R,5R)-5-[[1-[2-(Difluoromethoxy)-4-(trifluoromethyl)phenyl]pyrrolo[1,2-d][1,2,4]triazin-4-yl]amino]-1-methyl-piperidin-3-ol], the IC50 was in the range of 100 to 300 nM.

As to `COc1cc(C(F)(F)F)ccc1-c1nnc(N[C@@H]2CCCN(C)C2)n2ccnc12` [Compound I-386, 8-[2-Methoxy-4-(trifluoromethyl)phenyl]-N-[(3R)-1-methyl-3-piperidyl]imidazo[1,2-d][1,2,4]triazin-5-amine formic acid salt], the IC50 was 100 to 300 nM.

On to `CN1C[C@H](O)C[C@@H](Nc2nnc(-c3c(O)cc(C4CC4)cc3F)c3cccn23)C1` [Compound I-387, (3R,5R)-5-[[1-(4-Cyclopropyl-2-fluoro-6-hydroxy-phenyl)pyrrolo[1,2-d][1,2,4]triazin-4-yl]amino]-1-methyl-piperidin-3-ol], for which the IC50 was 10 to 100 nM.

As for `FC(F)Oc1cc(C(F)(F)F)ccc1-c1nnc(N[C@@H]2CCOC2)n2cccc12` [Compound I-388], the IC50 is 1 to 10 nM.

As to `C[C@H](O)CNc1nnc(-c2ccc(C(F)(F)F)cc2OC(F)F)c2cccn12` [Compound I-389], the IC50 was 1 to 10 nM.

For `COc1cc(Br)ccc1-c1nnc(N[C@@H]2CCCNC2)n2nccc12` [Compound I-390], the IC50 is 100 to 300 nM.

On to `Oc1cc(Br)ccc1-c1nnc(N[C@@H]2CCCNC2)n2nccc12` [Compound I-391], for which the IC50 lay within 1 to 10 nM.

Take `CCN1CCC[C@@H](Nc2nnc(-c3ccc(OC)cc3C(F)(F)F)c3cccn23)C1` [Compound I-392]: the IC50 lay within 1 to 10 nM.
